Data published in ChEMBL document CHEMBL1122103 (J Med Chem, 1982).

Experiments:
L1210 [1] = test: (§1) In vitro membrane transport activity in L1210 cells in rodent; assay type: functional, Mus musculus
Enterococcus faecium [2] = test: In vitro antibacterial activity against Streptococcus faecium (ATCC 8043); assay type: functional, organism-based
Mus musculus [3] = organism: Mus musculus; test: In vitro membrane transport activity in neoplastic epithelial cells of rodent gut; assay type: functional, cell-based; settings: Epithelial cell
L1210 [4] = test: In vitro for antitumor activity against L1210 leukemia in mice at a dose of 144 mg/Kg(sc) was reported as weight at termination of the therapy; assay type: functional, Mus musculus
L1210 [5] = test: In vitro inhibition of L1210 cell growth in rodent neoplastic cells; assay type: functional, cell-based; settings: Mus musculus
Ehrlich = test: In vitro membrane transport activity in Ehrlich cells in rodent; assay type: functional, cell-based; settings: Mus musculus
Thymidylate synthase = target: T1, Thymidylate synthase (Lactobacillus casei, UniProt P00469); test: In vitro inhibition of activity against Lactobacillus casei enzyme thymidylate synthase; assay type: functional, Lacticaseibacillus casei
T1 sequence (P00469 whole entry): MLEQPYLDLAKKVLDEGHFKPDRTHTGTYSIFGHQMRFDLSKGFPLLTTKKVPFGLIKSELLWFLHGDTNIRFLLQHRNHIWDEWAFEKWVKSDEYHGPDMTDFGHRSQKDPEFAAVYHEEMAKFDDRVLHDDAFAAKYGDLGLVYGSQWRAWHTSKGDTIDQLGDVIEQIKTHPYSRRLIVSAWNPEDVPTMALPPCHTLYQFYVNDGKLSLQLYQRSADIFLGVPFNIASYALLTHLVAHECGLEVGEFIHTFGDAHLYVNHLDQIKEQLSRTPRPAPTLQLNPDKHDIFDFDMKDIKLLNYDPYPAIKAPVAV

Lacticaseibacillus casei [6] = test: In vitro antibacterial activity against MTX-resistance Lactobacillus casei; assay type: functional, organism-based
L1210 [7] = test: as §1; assay type: functional, cell-based; settings: Mus musculus
Mus musculus [8] = organism: Mus musculus; test: In vitro membrane transport activity in S180 ascites tumor in rodent; assay type: functional
Enterococcus faecium [9] = test: In vitro antibacterial activity against MTX-resistant Streptococcus faecium; assay type: functional, organism-based
L1210 [10] = test: In vitro for antitumor activity against L1210 leukemia in mice at a dose of 144 mg/Kg(sc) was reported as percentage increase in life span; assay type: functional; settings: Mus musculus
Dihydrofolate reductase [11] = target: T2, Dihydrofolate reductase (Mus musculus, UniProt P00375); test: In vitro inhibitory activity against L1210 dihydrofolate reductase in rodent neoplastic cells
T2 sequence (P00375 whole entry): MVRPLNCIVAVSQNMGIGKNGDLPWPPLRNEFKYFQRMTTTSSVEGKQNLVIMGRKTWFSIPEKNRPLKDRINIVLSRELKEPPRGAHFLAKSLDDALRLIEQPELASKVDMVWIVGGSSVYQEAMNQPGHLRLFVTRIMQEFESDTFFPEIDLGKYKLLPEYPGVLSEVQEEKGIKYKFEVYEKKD

Lacticaseibacillus casei [12] = test: In vitro antibacterial activity against Lactobacillus casei (ATCC 7469); assay type: functional, organism-based
L1210 [13] = test: In vitro for antitumor activity against L1210 leukemia in mice at a dose of 144 mg/Kg(sc) was reported as maximum survival time; assay type: functional, Mus musculus
Dihydrofolate reductase [14] = target: Dihydrofolate reductase (Lactobacillus casei, UniProt P00381); test: In vitro inhibition of Dihydrofolate reductase activity against Lactobacillus casei enzyme; assay type: functional, Lacticaseibacillus casei
[15] = In vitro for antitumor activity against S180 Ascites tumor in mice at a dose of 36 mg/Kg (sc) was reported as percentage increase in life span; assay type: functional; settings: Mus musculus, S-180, sc
L1210 [16] = test: In vitro for antitumor activity against L1210 leukemia in mice at a dose of 288 mg/Kg(sc) was reported as maximum survival time; assay type: functional, Mus musculus
[17] = In vitro antitumor activity against S180 Ascites tumor in mice at a dose of 36 mg/Kg (sc) was reported as maximum survival time; assay type: functional, Mus musculus
[18] = In vitro antitumor activity against S180 Ascites tumor in mice at a dose of 288 mg/Kg (sc) was reported as maximum survival time; assay type: functional, Mus musculus
L1210 [19] = test: In vitro for antitumor activity against L1210 leukemia in mice at a dose of 288 mg/Kg(sc) was reported as weight at termination of the therapy; assay type: functional, Mus musculus
[20] = In vitro for antitumor activity against S180 Ascites tumor in mice at a dose of 36 mg/Kg (sc) was reported as weight at termination of the therapy; assay type: functional, Mus musculus
L1210 [21] = test: In vitro for antitumor activity against L1210 leukemia in mice at a dose of 288 mg/Kg(sc) was reported as percentage increase in life span; assay type: functional; settings: Mus musculus
[22] = In vitro for antitumor activity against S180 Ascites tumor in mice at a dose of 288 mg/Kg (sc) was reported as percentage increase in life span; assay type: functional; settings: Mus musculus, S-180, sc
[23] = In vitro for antitumor activity against S180 Ascites tumor in mice at a dose of 288 mg/Kg (sc) was reported as weight at termination of the therapy; assay type: functional, Mus musculus
L1210 [24] = test: In vitro for antitumor activity against L1210 leukemia in mice at a dose of 288 mg/kg (s.c.) was reported as percentage increase in life span; assay type: functional; settings: Mus musculus, L1210, sc
L1210 [25] = test: In vitro for antitumor activity against L1210 leukemia in mice at a dose of 15 mg/Kg(sc) was reported as weight at termination of the therapy; assay type: functional, Mus musculus
[26] = In vitro for antitumor activity against S180 Ascites tumor in mice at a dose of 15 mg/Kg (sc) was reported as weight at termination of the therapy; assay type: functional, Mus musculus
[27] = In vitro antitumor activity against S180 Ascites tumor in mice at a dose of 6 mg/Kg (sc) was reported as maximum survival time; assay type: functional, Mus musculus
[28] = In vitro for antitumor activity against S180 Ascites tumor in mice at a dose of 6 mg/Kg (sc) was reported as weight at termination of the therapy; assay type: functional, Mus musculus
[29] = In vitro antitumor activity against S180 Ascites tumor in mice at a dose of 15 mg/Kg (sc) was reported as maximum survival time; assay type: functional, Mus musculus
L1210 [30] = test: In vitro for antitumor activity against L1210 leukemia in mice at a dose of 15 mg/Kg(sc) was reported as percentage increase in life span; assay type: functional; settings: Mus musculus
L1210 [31] = test: In vitro for antitumor activity against L1210 leukemia in mice at a dose of 15 mg/Kg(sc) was reported as maximum survival time; assay type: functional, Mus musculus
[32] = In vitro for antitumor activity against S180 Ascites tumor in mice at a dose of 6 mg/Kg (sc) was reported as percentage increase in life span; assay type: functional; settings: Mus musculus, S-180, sc
[33] = In vitro for antitumor activity against S180 Ascites tumor in mice at a dose of 15 mg/Kg (sc) was reported as percentage increase in life span; assay type: functional; settings: Mus musculus, S-180, sc

Dihydrofolate reductase (Lactobacillus casei, UniProt P00381), sequence (P00381 whole entry): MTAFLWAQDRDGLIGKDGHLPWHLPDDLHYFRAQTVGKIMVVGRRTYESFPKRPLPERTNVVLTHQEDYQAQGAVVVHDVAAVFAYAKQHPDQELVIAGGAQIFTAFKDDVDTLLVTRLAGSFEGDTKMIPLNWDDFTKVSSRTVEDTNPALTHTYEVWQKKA

CCCCCCCCN(Cc1cnc2nc(N)nc(N)c2n1)c1ccc(C(=O)NC(CCC(=O)O)C(=O)O)cc1 (stereo unspecified)
k (L1210 [1]): 0.89 min⁻¹
IC50 (Enterococcus faecium [2]): 0.41 µM
Km (Mus musculus [3]): 1290 µM
Weight at term (L1210 [4]): 22.7 g
IC50 (L1210 [5]): 0.217 µM
Km (Ehrlich): 1.3 µM
IC50 (Thymidylate synthase): > 80 µM
IC50 (Lacticaseibacillus casei [6]): > 10000 µM
Km (L1210 [7]): 5.6 µM
Km (Mus musculus [8]): 1.8 µM
IC50 (Enterococcus faecium [9]): 670 µM
ILS at 144 mg/kg (L1210 [10]): 16%
Ki (Dihydrofolate reductase [11]): 17.5 nM
IC50 (Lacticaseibacillus casei [12]): 0.017 µM
MST (L1210 [13]): 8.1 days
IC50 (Dihydrofolate reductase [14]): 0.012 µM

C#CCN(Cc1cnc2nc(N)nc(N)c2n1)c1ccc(C(=O)NC(CCC(=O)O)C(=O)O)cc1 (stereo unspecified)
k (L1210 [1]): 0.26 min⁻¹
IC50 (Enterococcus faecium [2]): 0.21 µM
ILS at 36 mg/kg [15]: 129%
Km (Mus musculus [3]): 385 µM
MST (L1210 [16]): 16.6 days
MST [17]: 22.9 days
IC50 (L1210 [5]): 0.0014 µM
MST [18]: 19.8 days
Km (Ehrlich): 2.4 µM
IC50 (Thymidylate synthase): 20 µM
IC50 (Lacticaseibacillus casei [6]): > 10000 µM
Weight at term (L1210 [19]): 22.3 g
Weight at term [20]: 23.9 g
Km (L1210 [7]): 3.2 µM
Km (Mus musculus [8]): 2.1 µM
ILS at 288 mg/kg (L1210 [21]): 143%
IC50 (Enterococcus faecium [9]): > 10000 µM
ILS at 288 mg/kg [22]: 67%
Ki (Dihydrofolate reductase [11]): 0.5 nM
IC50 (Lacticaseibacillus casei [12]): 0.014 µM
Weight at term [23]: 22.4 g
IC50 (Dihydrofolate reductase [14]): 0.01 µM

CCCN(Cc1cnc2nc(N)nc(N)c2n1)c1ccc(C(=O)NC(CCC(=O)O)C(=O)O)cc1 (stereo unspecified)
k (L1210 [1]): 0.26 min⁻¹
Km (Mus musculus [3]): 422 µM
MST (L1210 [16]): 15.8 days
IC50 (L1210 [5]): 0.0022 µM
Km (Ehrlich): 4.2 µM
ILS at 288 mg/kg (L1210 [24]): 133%
Weight at term (L1210 [19]): 21.3 g
Km (L1210 [7]): 3.2 µM
Km (Mus musculus [8]): 3.5 µM
Ki (Dihydrofolate reductase [11]): 0.003 nM

Nc1nc(N)c2nc(CNc3ccc(C(=O)N[C@@H](CCC(=O)O)C(=O)O)cc3)cnc2n1 [AMINOPTERIN]
k (L1210 [1]): 0.21 min⁻¹
IC50 (L1210 [5]): 0.0012 µM
Km (Ehrlich): 2.1 µM
Km (L1210 [7]): 1.3 µM
Ki (Dihydrofolate reductase [11]): 0.004 nM

CN(Cc1cnc2nc(N)nc(N)c2n1)c1ccc(C(=O)N[C@@H](CCC(=O)O)C(=O)O)cc1 [METHOTREXATE]
k (L1210 [1]): 0.23 min⁻¹
IC50 (Enterococcus faecium [2]): 0.09 µM
Km (Mus musculus [3]): 339 µM
Weight at term (L1210 [25]): 19.8 g
Km (Ehrlich): 10.1 µM
Weight at term [26]: 24.4 g
MST [27]: 17.8 days
IC50 (Lacticaseibacillus casei [6]): > 10000 µM
Km (L1210 [7]): 3.7 µM
Km (Mus musculus [8]): 11.4 µM
Weight at term [28]: 24.1 g
MST [29]: 21.4 days
IC50 (Enterococcus faecium [9]): 7200 µM
ILS at 15 mg/kg (L1210 [30]): 152%
IC50 (Lacticaseibacillus casei [12]): 0.013 µM
MST (L1210 [31]): 17.1 days
ILS at 6 mg/kg [32]: 78%
ILS at 15 mg/kg [33]: 82%
